In patent US20240228468A1, “N-(6-((OCTAHYDROCYCLOPENTA[C]PYRROL-5-YI)AMINO)PYRIDAZIN-3-YL)PHENYL)CARBOXAMIDE AND (6- ((OCTAHYDROCYCLOPENTA[C]PYRROL-5-YL)AMINO)PYRIDAZIN-3-YL)BENZAMIDE DERIVATIVES AS MACHR M4 ANTAGONISTS FOR THE TREATMENT OF NEURODEGENERATIVE DISORDERS” (Vanderbilt University, priority 2021, published 2024):

Biological target: T1, Human M4 (Homo sapiens, UniProt P08173)
T1 construct: expressed in transfected cells; host or cells: CHO-K1 (ATCC), co-transfected with chimeric G protein Gqi5
T1 sequence (P08173 1-479): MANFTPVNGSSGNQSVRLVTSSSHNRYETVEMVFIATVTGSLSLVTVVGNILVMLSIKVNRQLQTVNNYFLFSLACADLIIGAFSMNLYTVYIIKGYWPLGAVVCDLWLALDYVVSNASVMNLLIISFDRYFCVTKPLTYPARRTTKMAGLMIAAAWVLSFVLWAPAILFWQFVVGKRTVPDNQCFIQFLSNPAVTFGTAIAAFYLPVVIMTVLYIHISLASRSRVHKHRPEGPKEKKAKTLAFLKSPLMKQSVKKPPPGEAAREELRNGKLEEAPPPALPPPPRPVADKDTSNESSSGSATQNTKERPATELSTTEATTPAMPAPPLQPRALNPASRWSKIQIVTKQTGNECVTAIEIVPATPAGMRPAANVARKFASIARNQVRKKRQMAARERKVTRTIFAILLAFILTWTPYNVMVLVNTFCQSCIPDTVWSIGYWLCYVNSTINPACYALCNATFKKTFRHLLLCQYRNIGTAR
Assay: mAChR M4 cell-based functional assay (calcium flux, antagonism of EC80 acetylcholine response)
Conditions: M4/Gqi5/CHO-K1 cells; for remaining activity at 30 µM: % ACh maximum at 30 μM, read-out: Human M4 Emin (% ACh maximum at 30 μM); for IC50: concentration-dependent decrease of the response elicited by an EC80 concentration of acetylcholine
Outline: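 CHO-K1 cells stably expressing human M4 with chimeric Gqi5, Fluo-4 loaded; calcium flux read on FDSS. Compound (10-point, 1:3 series) added first, then EC20 acetylcholine at 143 s and EC80 at 268 s. IC50 from concentration-dependent decrease of EC80 response, four-parameter logistic fit.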

remaining activity at 30 µM	IC50	Structure (SMILES)
4%	67 nM	CCC(=O)Nc1ccccc1-c1ccc(N[C@H]2C[C@@H]3CN(CC4CCOCC4)C[C@@H]3C2)nn1 [Compound A44, N-(2-(6-(((3aR,5s,6aS)-2-((tetrahydro-2H-pyran-4-yl)methyl)octahydrocyclopenta[c]pyrrol-5-yl)amino)pyridazin-3-yl)phenyl)propionamide]
6%	180 nM	CNC(=O)c1ccccc1-c1ccc(N[C@H]2C[C@@H]3CN(CC4CCOCC4)C[C@@H]3C2)nn1 [Compound A45, N-methyl-2-(6-(((3aR,5s,6aS)-2-((tetrahydro-2H-pyran-4-yl)methyl)octahydrocyclopenta[c]pyrrol-5-yl)amino)pyridazin-3-yl)benzamide]
4%	20 nM	[2H]C([2H])(C1CCOCC1)N1C[C@H]2C[C@H](Nc3ccc(-c4cccc(C(=O)NCC)c4)nn3)C[C@H]2C1 [Compound A46, N-ethyl-3-(6-(((3aR,5s,6aS)-2-((tetrahydro-2H-pyran-4-yl)methyl-d2)octahydrocyclopenta[c]pyrrol-5-yl)amino)pyridazin-3-yl)benzamide]
4%	74 nM	[2H]C([2H])(C1CCOCC1)N1C[C@H]2C[C@H](Nc3ccc(-c4ccccc4C(=O)NC)nn3)C[C@H]2C1 [Compound A48, N-methyl-2-(6-(((3aR,5s,6aS)-2-((tetrahydro-2H-pyran-4-yl)methyl-d2)octahydrocyclopenta[c]pyrrol-5-yl)amino)pyridazin-3-yl)benzamide]
4%	56 nM	[2H]C([2H])(C1CCOCC1)N1C[C@H]2C[C@H](Nc3ccc(-c4ccccc4NC(=O)CC)nn3)C[C@H]2C1 [Compound A50, N-(2-(6-(((3aR,5s,6aS)-2-((tetrahydro-2H-pyran-4-yl)methyl-d2)octahydrocyclopenta[c]pyrrol-5-yl)amino)pyridazin-3-yl)phenyl)propionamide]
3%	2.1 nM	CCNC(=O)c1ccc(-c2ccc(N[C@H]3C[C@@H]4CN(CC5CCOCC5)C[C@@H]4C3)nn2)cc1 [Compound A51, N-ethyl-4-(6-(((3aR,5s,6aS)-2-((tetrahydro-2H-pyran-4-yl)methyl)octahydrocyclopenta[c]pyrrol-5-yl)amino)pyridazin-3-yl)benzamide]
5%	7.8 nM	[2H]C([2H])(C1CCOCC1)N1C[C@H]2C[C@H](Nc3ccc(-c4ccc(C(=O)NCC)cc4)nn3)C[C@H]2C1 [Compound A52, N-ethyl-4-(6-(((3aR,5s,6aS)-2-((tetrahydro-2H-pyran-4-yl)methyl-d2)octahydrocyclopenta[c]pyrrol-5-yl)amino)pyridazin-3-yl)benzamide]
4%	200 nM	[2H]C([2H])([2H])NC(=O)c1ccccc1-c1ccc(N[C@H]2C[C@@H]3CN(C([2H])([2H])C4CCOCC4)C[C@@H]3C2)nn1 [Compound A53, N-(methyl-d3)-2-(6-(((3aR,5s,6aS)-2-((tetrahydro-2H-pyran-4-yl)methyl-d2)octahydrocyclopenta[c]pyrrol-5-yl)amino)pyridazin-3-yl)benzamide]
4%	43 nM	CCC(=O)Nc1cccc(-c2ccc(N[C@H]3C[C@@H]4CN(CC5CCOCC5)C[C@@H]4C3)nn2)c1 [Compound A56, N-(3-(6-(((3aR,5s,6aS)-2-((tetrahydro-2H-pyran-4-yl)methyl)octahydrocyclopenta[c]pyrrol-5-yl)amino)pyridazin-3-yl)phenyl)propionamide]
3%	37 nM	[2H]C([2H])(C1CCOCC1)N1C[C@H]2C[C@H](Nc3ccc(-c4cccc(NC(=O)CC)c4)nn3)C[C@H]2C1 [Compound A57, N-(3-(6-(((3aR,5s,6aS)-2-((tetrahydro-2H-pyran-4-yl)methyl-d2)octahydrocyclopenta[c]pyrrol-5-yl)amino)pyridazin-3-yl)phenyl)propionamide]
6%	200 nM	CCNC(=O)c1ccccc1-c1ccc(N[C@H]2C[C@@H]3CN(CC4CCOCC4)C[C@@H]3C2)nn1 [Compound A58, N-ethyl-2-(6-(((3aR,5s,6aS)-2-((tetrahydro-2H-pyran-4-yl)methyl)octahydrocyclopenta[c]pyrrol-5-yl)amino)pyridazin-3-yl)benzamide]
6%	170 nM	[2H]C([2H])(C1CCOCC1)N1C[C@H]2C[C@H](Nc3ccc(-c4ccccc4C(=O)NCC)nn3)C[C@H]2C1 [Compound A59, N-ethyl-2-(6-(((3aR,5s,6aS)-2-((tetrahydro-2H-pyran-4-yl)methyl-d2)octahydrocyclopenta[c]pyrrol-5-yl)amino)pyridazin-3-yl)benzamide]
6%	210 nM	[2H]C([2H])([2H])NC(=O)c1ccccc1-c1ccc(N[C@H]2C[C@@H]3CN(CC4CCOCC4)C[C@@H]3C2)nn1 [Compound A60, N-(methyl-d3)-2-(6-(((3aR,5s,6aS)-2-((tetrahydro-2H-pyran-4-yl)methyl)octahydrocyclopenta[c]pyrrol-5-yl)amino)pyridazin-3-yl)benzamide]
3%	12 nM	[2H]C([2H])([2H])C(=O)Nc1cccc(-c2ccc(N[C@H]3C[C@@H]4CN(CC5CCOCC5)C[C@@H]4C3)nn2)c1 [Compound A61, N-(3-(6-(((3aR,5s,6aS)-2-((tetrahydro-2H-pyran-4-yl)methyl)octahydrocyclopenta[c]pyrrol-5-yl)amino)pyridazin-3-yl)phenyl)acetamide-2,2,2-d3]
3%	13 nM	[2H]C([2H])([2H])C(=O)Nc1cccc(-c2ccc(N[C@H]3C[C@@H]4CN(C([2H])([2H])C5CCOCC5)C[C@@H]4C3)nn2)c1 [Compound A62, N-(3-(6-(((3aR,5s,6aS)-2-((tetrahydro-2H-pyran-4-yl)methyl-d2)octahydrocyclopenta[c]pyrrol-5-yl)amino)pyridazin-3-yl)phenyl)acetamide-2,2,2-d3]
3%	1.2 nM	CNC(=O)c1ccc(-c2ccc(N[C@H]3C[C@@H]4CN(CC5CCOCC5)C[C@@H]4C3)nn2)cc1 [Compound A63, N-methyl-4-(6-(((3aR,5s,6aS)-2-((tetrahydro-2H-pyran-4-yl)methyl)octahydrocyclopenta[c]pyrrol-5-yl)amino)pyridazin-3-yl)benzamide]
5%	6.3 nM	[2H]C([2H])(C1CCOCC1)N1C[C@H]2C[C@H](Nc3ccc(-c4cc(F)c(C(N)=O)c(F)c4F)nn3)C[C@H]2C1 [Compound A65, 2,3,6-trifluoro-4-(6-(((3aR,5s,6aS)-2-((tetrahydro-2H-pyran-4-yl)methyl-d2)octahydrocyclopenta[c]pyrrol-5-yl)amino)pyridazin-3-yl)benzamide]
